Test results as given in patent US8658633B2, “Methods and compositions for treating conditions of the eye” (Massachusetts Eye and Ear Infirmary, priority 2006, dated 2014).

Key:
laser-induced CNV = test: Fluorescein angiography grading of leakage and CNV closure in the rat model of laser-induced CNV; assay type: in vivo, Brown Norway rats
Protocol: (§1) Briefly, CNV membranes were induced in Brown-Norway rats using an Argon/Dye laser while either 17AAG at a total dose of approximately 2 mg or the vehicle (DMSO) was continuously administered. Verterporfin PDT was performed 14 days after CNV induction at a verterporfin dose of 3 mg/m^2, an irradiance of 600 mW/cm^2, and a fluence of 25 J/cm^2. Choroidal neovasculature closure on fluorescein angiograms was assessed 24 hours and 7 days after PDT in a masked fashion using grading standards. Retinal levels of p42/44 MAPK, HIF-1a, NF-kB, VEGF, and endostatin were assessed with a modified enzyme-linked immunoabsorbant assay (“ELISA”) method. […] The combination of 17-allylamino-17-demethoxygeldanamycin treatment and PDT treatment was also synergistic with respect to increased endostatin levels.
All experiments adhered to the Association for Research in Vision and Ophthalmology Statement for the Use of Animals in Ophthalmic and Vision Research and the guidelines established by the Animal Care Committee of the Massachusetts Eye and Ear Infirmary. Brown Norway rats (Charles River Laboratory, Wilmington, Mass.) were anesthetized via an intramuscular injection of 50 mg/kg of ketamine hydrochloride and 10 mg/kg of xylazine. Pupils were dilated with a topical application of 5% phenylephrine and 0.8% tropicamide. […]
Fluorescein angiography (“FA”) was performed 14 days after the initial laser treatment using a digital fundus camera system (model TRC 501A Topcon, Paramus, N.J.) and standard fluorescein filters to determine if CNV induction was successful. […] All angiograms were evaluated in masked fashion by two independent retina specialists using grading standards regarding severity of CNV (baseline FAs) and CNV closure (24 hours FAs).
PDT with verteporfin was performed on experimental CNV. […] The body surface area of each rat was determined based on their weight according to a nomogram developed by Gilpin (Gilpin et al. (1996) Burns 22(8): 607-1 1). […]

endostatin = test: ELISA for retinal endostatin levels in laser-induced CNV rats; assay type: in vivo, Brown Norway rats
Protocol: (§2) Briefly, CNV membranes were induced in Brown-Norway rats using an Argon/Dye laser while either 17AAG at a total dose of approximately 2 mg or the vehicle (DMSO) was continuously administered. Verterporfin PDT was performed 14 days after CNV induction at a verterporfin dose of 3 mg/m^2, an irradiance of 600 mW/cm^2, and a fluence of 25 J/cm^2. Choroidal neovasculature closure on fluorescein angiograms was assessed 24 hours and 7 days after PDT in a masked fashion using grading standards. Retinal levels of p42/44 MAPK, HIF-1a, NF-kB, VEGF, and endostatin were assessed with a modified enzyme-linked immunoabsorbant assay (“ELISA”) method. […]
Each retina was homogenized in 100 μl of solution consisting of 20 mM imidazole hydrochloride, 100 mM KCl, 1 mM MgCl, 1 mM EGTA, 1% Triton, 10 mM NaF, 1 mM sodium molybdynate and 1 mM EDTA supplemented with a cocktail of protease inhibitors (Complete, Roche, Basel, Switzerland) prior to use. Samples were cleared by centrifugation for 10 min. at 13,000 rpm and assessed for protein concentration with the BCA assay (Micro BCA™ Protein Assay Kit, Pierce Co., Rockford, Ill.). […] The reaction was stopped, and the absorption was measured in an ELISA reader at 450 nm. […] The tissue sample concentration was calculated from a standard curve and corrected for protein concentration.

HIF-1a = test: Quantification of retinal HIF-1a activation (Trans-AM transcription factor assay on retinal nuclear extract); assay type: in vivo, Brown Norway rats
Protocol: as §2
(§3) NF-kB and HIF-1a activation was analyzed using the Trans-AM NF-kB p65/NF-kB p50 Transcription Factor Assay Kit (Active Motif North America, Carlsbad, Calif.) according to the manufacturer's instructions. Briefly, two micrograms of a retinal nuclear extract were incubated with an oligonucleotide containing the consensus binding element for each of the transcription factors analyzed bound to a 96-well plate. […] After washes, the plates were subsequently incubated with a secondary antibody conjugated to horseradish peroxidase (1:1000), and the peroxidase reaction was quantified at 450 nm with a reference wavelength of 655 nm. […]

NF-kB = test: Quantification of retinal NF-kB activation (Trans-AM transcription factor assay on retinal nuclear extract); assay type: in vivo, Brown Norway rats
Protocol: as §2, §3

p42/44 MAPK = test: Retinal p42/44 MAPK activation (modified ELISA) in laser-induced CNV rats; assay type: in vivo, Brown Norway rats
Protocol: as §1
To achieve steady drug levels in the circulation of animals, 17AAG (Calbiochem EMD Biosciences, San Diego, Calif.) or the vehicle (DMSO, Sigma, St. Louis, Mo.) was administered by slow intraperitoneal release from osmotic pumps (Alzet, Cupertino, Calif.) instead of repeated intraperitoneal injections. Immediately following the induction of choroidal neovascularization, osmotic pumps (Alzet, Cupertino, Calif.) were implanted as previously described (Poulaki et al. (2002) J. Clin. Invest. 109(6): 805-15). […]

[1] = parameters: unit not given here; conditions: typical value, general description; cited from earlier work

C=CCNC1=C2C[C@@H](C)C[C@H](OC)[C@H](O)[C@@H](C)/C=C(\C)[C@H](OC(N)=O)[C@@H](OC)/C=C\C=C(/C)C(=O)NC(=CC1=O)C2=O [17AAG, 17-allylamino-17-demethoxygeldanamycin]
lesions closed one week after PDT treatment (laser-induced CNV; grade IIB lesions, 17AAG in combination with verteporfin PDT, DMSO+PDT control 6 out of 17): 12 out of the 14 | lesions closed one day after PDT treatment (laser-induced CNV; grade IIB lesions, 17AAG in combination with verteporfin PDT, DMSO+PDT control 9 out of 17): 12 out of the 14 | lesions showing the highest grade (IIB) of leakage (laser-induced CNV; two weeks following CNV induction, 17AAG approx. 2 mg by i.p. osmotic pump, without PDT, P>0.05 vs DMSO (32 out of 53)): 26 out of 47 | retinal levels of endostatin (endostatin; 17AAG and PDT treated animals, 1 day after PDT, statistically significant vs laser treated 15.7±2.8): 258±6 O.D./μg tissue | retinal levels of endostatin (endostatin; 17AAG and laser treated animals without PDT, P>0.05 vs laser treated 15.7±2.8): 32.34±6.11 O.D./μg tissue | retinal levels of HIF-1a activation (HIF-1a; 17AAG and PDT treated animals, 1 day after PDT, PDT without 17AAG 1.69±0.38): 0.946±0.06 O.D./μg tissue | retinal levels of HIF-1a activation (HIF-1a; 17AAG and laser treated animals without PDT, P>0.05 vs laser treated 1.06±0.1): 1.064±0.136 O.D./μg tissue | retinal levels of NF-kB activation (NF-kB; 17AAG and PDT treated animals, 1 day after PDT, PDT without 17AAG 13.7±0.3): 5.9±0.045 O.D./μg tissue | retinal levels of NF-kB activation (NF-kB; 17AAG and laser treated animals without PDT, P>0.05 vs laser treated 10.12±0.74): 9.54±1.47 O.D./μg tissue | retinal levels of p42/44 MAPK activation (p42/44 MAPK; 17AAG and PDT treated animals, 1 day after PDT, PDT without 17AAG 923±45): 417±6 O.D./μg tissue | retinal levels of p42/44 MAPK activation (p42/44 MAPK; 17AAG and laser treated animals without PDT, P>0.05 vs laser treated 603±1): 560±22 O.D./μg tissue

C=Cc1c(C)c2cc3nc(c(CC(=O)N[C@@H](CC(=O)O)C(=O)O)c4[nH]c(cc5nc(cc1[nH]2)C(C)=C5CC)c(C)c4C(=O)O)[C@@H](CCC(=O)O)[C@@H]3C [N-aspartyl chlorin e6]
time the photosensitizer persists in the target neovasculature [1]: about twenty

CC(=O)[O-].CC(=O)[O-].CCc1c(CC)c2cc3nc(cnc4cc(OCCOCCOCCOC)c(OCCOCCOCCOC)cc4ncc4nc(cc1[n-]2)C(CCCO)=C4C)C(C)=C3CCCO.O.[Lu+3] [lutetium texaphyrin]
time the photosensitizer persists in the target neovasculature [1]: about twenty

benzoporphyrin derivative
time the photosensitizer persists in the target neovasculature [1]: about fifty
